The text below walks through data of patent US20230146675A1, “PYRIMIDO[5,4-d]PYRIMIDINE DERIVATIVES AS ENT INHIBITORS FOR THE TREATMENT OF CANCERS, AND COMBINATION THEREOF WITH ADENOSINE RECEPTOR ANTAGONISTS” (ITEOS BELGIUM SA, priority 2020, published 2023).

Each structure is given as a SMILES string. Like-named read-outs stand apart in the source and are kept apart here.

The target of data set [1] is T1, human ENT1 (Homo sapiens, UniProt Q99808).
T1 sequence (Q99808 1-456): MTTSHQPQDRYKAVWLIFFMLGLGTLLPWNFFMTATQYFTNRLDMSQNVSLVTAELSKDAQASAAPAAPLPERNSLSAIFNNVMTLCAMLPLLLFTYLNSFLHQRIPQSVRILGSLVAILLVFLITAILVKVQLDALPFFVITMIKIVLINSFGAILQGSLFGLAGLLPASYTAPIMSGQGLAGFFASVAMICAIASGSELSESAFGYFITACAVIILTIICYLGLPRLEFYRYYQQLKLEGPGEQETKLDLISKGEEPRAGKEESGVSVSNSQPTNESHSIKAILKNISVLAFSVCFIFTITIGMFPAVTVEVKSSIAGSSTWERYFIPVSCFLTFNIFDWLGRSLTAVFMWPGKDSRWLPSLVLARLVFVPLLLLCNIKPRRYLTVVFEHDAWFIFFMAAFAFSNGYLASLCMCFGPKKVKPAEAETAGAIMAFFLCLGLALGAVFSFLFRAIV
In words: Uridine transport inhibition assay (3H-uridine uptake, MDCKII-ENT1-LV cells). It is filed as cell-based. The note with it: 3H-uridine (1 μM), 1 min at 25° C. From the text:
Purpose. The aim of this study was to determine the potency of equilibrative nucleoside transporter 1 (ENT1) inhibitors by measuring ENT1-mediated transport is the cellular uptake assay. The human ENT1 transporter can be stably expressed in Madin-Darby Canine Kidney II (MDCKII) cells via transduction. Uridine is efficiently transported by ENT1 and is used as probe in the assay as 3H-uridine. The interaction is detected as the modulation of the initial rate of 3H-uridine transport by human ENT1 into MDCKII-ENT1-LV cells stably expressing ENT1 uptake transporter.

Data set [2] relates to stimulated primary human T cells. The data set can be described thus: T cell proliferation assay (rescue of proliferation in presence of 100 uM ATP). It is filed as cell-based. How it is done: Purpose. The aim of this study was to determine the potency of equilibrative nucleoside transporter 1 (ENT1) inhibitors to rescue proliferation by stimulated primary human T cells incubated in the presence of 100 uM Adenosine triphosphate (ATP) with: • Condition A: X-VIVO15 • Condition B: X-VIVO15, 2% Human Serum Albumine (HSA) and 0.1% α-1-Acid Glycoprotein (AAG)
Method. Cryopreserved purified human CD3+ T cells were thawed and washed twice with RPMI1640 medium, UltraGlutamine containing 10% hiFBS.
Cells were suspended in PBS containing 10% hiFBS. Cells were stained with CFSE by adding 2 μM solution in PBS, to get a final 1 μM CFSE solution. Cells were incubated while rotating for 5 minutes. Reaction was stopped by adding PBS with 10% FBS and cells were centrifuged for 5 minutes at 1500 rpm.
Cells were resuspended at 1.6×10^6 cells/mL, either in X-VIVO15 medium or in 4% Human Serum Albumin and 0.2% α-1-Acid Glycoprotein. 50 μL of cell suspension (8×10^4 T cells) was added to wells of sterile round-bottom 96-well plates. Cells were activated by adding 50 μL of anti-CD3 anti-CD28 coated microbeads, suspended either in XVIVO-15 medium or in 4% HSA and 0.2% α-1-Acid Glycoprotein, at a ratio of one microbead per two cells.
Serial dilutions of the ENT1 inhibitors were prepared in X-VIVO15 from 10 mM stock solutions in DMSO, and 50 μL was added to the wells.
ATP powder was diluted in X-VIVO15, and 50 μL of this compound was added to the wells to reach a final assay concentration of 100 μM. Final volume of 200 μL.
The experiments were also performed in 384 well plates—all volumes reduced by a factor of 4 ([…]) with a final volume of 50 μL.
Experiments were performed in duplicate. The cells were placed in a 37° C. humidified tissue culture incubator with 5% CO2 for 72 hours for 96 well plates, 96 hours for 384 well plates. After 72 or 96 hours, proliferation was measured determined by CFSE dilution via flow cytometry.
Results. Compounds of the invention have good ENT1 inhibitory properties.

The subject of data set [3] is human alpha 1-acid glycoprotein (AAG). The data set can be described thus: AAG binding assay - HPLC assay. The note with it: for retention time (rt) on immobilized human AAG column: 100 μmol/L. On the procedure: Purpose. […] The principle of the assay is a liquid chromatography on a human AAG protein immobilized onto a silica support for separations of compounds following their affinity to AAG protein. By measuring the retention time, the binding to AAG can be determined relatively to the references.
Method. […] Mobile Phase A: 50 mM Ammonium acetate in deionized water; Mobile Phase B: Isopropanol; Column Oven: 8° C.; PDA(nm): 230; Flow Rate (mL/min): 0.2. Test Concentration (μmol/L): 100 (from 10 mmol/L DMSO solution diluted 100 folds by 50 mM Ammonium acetate in deionized water: Isopropanol (1:1)). Generic Gradient: Time (min): 0.01; 5; 13; 14; 20.

Data set [4] has as its system human AAG protein. The data set can be described thus: AAG binding assay - dialysis assay. The following applies: 2 μM, 37° C., 4-hr.
Procedure: Purpose. The aim of this assay is to determine the binding of a compound of interest to the human AAG protein using the robust method of dialysis.
Material. […] The dialysis Buffer (100 mM Phosphate Buffered Saline, pH 7.4) has been prepared by dissolving 28.56 g Na2HPO4.12H2O (AR grade) and 3.12 g NaH2PO4.2H2O (AR grade) into a final volume of 1000 mL ultra pure water, mixed, and adjusted the resulting solution with 1% phosphoric acid or 1 M sodium hydroxide to pH 7.4±0.1. Stored the final solution in 2-8° C. refrigerator within an expiration of a month after preparation.
Method: The dialysis membrane is soaked in dialysis buffer at 4° C. overnight. The following day the membrane is separated into two strips and then soaked in ethanol: water (20:80 v:v) for 20 mins. Then the membrane was rinsed with ultra-pure water 3-4 times. Prepared 400 μM working solution by diluting the stock solution (10 mM) with appropriate volume of DMSO. 5 μL aliquots of each working solution were spiked into 1000 μL of blank protein (matrix) to achieve a 2 μM final concentration as loading solution. The plates of loading solution were mixed well. Aliquots of 150 μL of loading solution were loaded in triplicate to the donor side of each dialysis well and dialyzed against an equal volume of dialysis buffer. […]
The concentration was calculated using the peak area ratio of analyte and internal standard.
In data set [5] the target is T1, human ENT1. The data set can be described thus: ENT1 binding assay (competition with Sahenta-DY647 on JAR cells). Also noted: JAR cells expressing ENT1 were bought from ATCC; host or cells: JAR cells. The following applies: binned IC50. The essentials: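 JAR cells were incubated with test compounds and the fluorescent ligand Sahenta-DY647 in competition. Plates were washed twice by centrifugation (4 min, 400 rcf, 4 °C). Binding potency was derived from the final fluorescence.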

Setting [6] is: Condition A: X-VIVO15, read-out: TCell proliferation (Condition A) IC50.
The mark [7] stands for this setting: Condition B: X-VIVO15, 2% HSA and 0.1% AAG, read-out: TCell proliferation (Condition B) IC50.

As for `COCCN(CCOC)c1nc(N2CCC(OC)CC2)c2nc(N(CCOC)CCOC)nc(N3CCC(OC)CC3)c2n1` [Compound 2, N2,N2,N6,N6-tetrakis(2-methoxyethyl)-4,8-bis(4-methoxypiperidin-1-yl)pyrimido[5,4-d]pyrimidine-2,6-diamine], the IC50 in data set [1] was below 100 nM; in data set [2] (setting [6]) it was 100 to 500 nM; in data set [2] (setting [7]), 100 to 500 nM; in data set [5], 100 to 500 nM. The “retention time (rt) on immobilized human AAG column” value in data set [3] is 5.2 min. In addition, in data set [4], the “Human alpha-1-acid glycoprotein (AAG) (1 mg/mL) Unbound” value worked out at 24.6% Unbound.
Turning to `CCCN(C)c1nc(N(CCOC)CCOC)nc2c(N3CCC(OC)CC3)nc(N(CCOC)CCOC)nc12` [Compound 68, N2,N2,N6,N6-tetrakis(2-methoxyethyl)-8-(4-methoxypiperidin-1-yl)-N4-methyl-N4-propylpyrimido[5,4-d]pyrimidine-2,4,6-triamine], the IC50 is below 100 nM in data set [1], 500 to 1000 nM in data set [2] (setting [6]), 500 to 1000 nM in data set [2] (setting [7]) and below 100 nM in data set [5].
With `COCCN(CCOC)c1nc(N2CCCC3(COC3)C2)c2nc(N(CCOC)CCOC)nc(N3CCC(OC)CC3)c2n1` [Compound 97, N2,N2,N6,N6-tetrakis(2-methoxyethyl)-4-(4-methoxypiperidin-1-yl)-8-(2-oxa-6-azaspiro[3.5]nonan-6-yl)pyrimido[5,4-d]pyrimidine-2,6-diamine], in data set [3] (AAG binding by HPLC retention time (rt) on CHIRALPAK AGP column, binned), the “AAG HPLC” value was “−− (rt below 6 min: −−)”. Moreover, in data set [5], the IC50 was below 100 nM.
Regarding `COCCN(CCOC)c1nc(N2CCC(OC)CC2)c2nc(N(CCO)Cc3cc(OC)c(OC)c(OC)c3)nc(N3CCC(OC)CC3)c2n1` [Compound 186, 2-((6-(bis(2-methoxyethyl)amino)-4,8-bis(4-methoxypiperidin-1-yl)pyrimido[5,4-d]pyrimidin-2-yl)(3,4,5-trimethoxybenzyl)amino)ethanol], the IC50 in data set [1] was below 100 nM; in data set [2] (setting [6]), below 100 nM; in data set [2] (setting [7]), 100 to 500 nM; in data set [5] it was below 100 nM.
In the case of `COCCN(CCOC)c1nc(N2CCC(OC)CC2)c2nc(N(CCOC)CCOC)nc(N(C)Cc3cccnc3)c2n1` [Compound 81, N2,N2,N6,N6-tetrakis(2-methoxyethyl)-8-(4-methoxypiperidin-1-yl)-N4-methyl-N4-(pyridin-3-ylmethyl)pyrimido[5,4-d]pyrimidine-2,4,6-triamine], the IC50 is below 100 nM in data set [1], 100 to 500 nM in data set [2] (setting [6]), 500 to 1000 nM in data set [2] (setting [7]) and below 100 nM in data set [5].
Regarding `CC(C)NCC(O)COc1cccc2ccccc12` (centres unmarked) [Propranolol, reference compound], the “retention time (rt) on immobilized human AAG column” value in data set [3] is given as 14.05 min.
Consider `COCCN(CCOC)c1nc(N2CCC(OC)CC2)c2nc(N(CCOC)CCOC)nc(NCc3ccc(F)c(C#N)c3)c2n1` [Compound 149, 5-(((2,6-bis(bis(2-methoxyethyl)amino)-8-(4-methoxypiperidin-1-yl)pyrimido[5,4-d]pyrimidin-4-yl)amino)methyl)-2-fluorobenzonitrile], for which the IC50 is below 100 nM in data set [1], 100 to 500 nM in data set [2] (setting [6]), 100 to 500 nM in data set [2] (setting [7]) and below 100 nM in data set [5].
Regarding `COCCN(CCOC)c1nc(N2CCC(OC)CC2)c2nc(N(CCOC)CCOC)nc(N(C)Cc3cccc(OC)c3)c2n1` [Compound 171, N4-(3-methoxybenzyl)-N2,N2,N6,N6-tetrakis(2-methoxyethyl)-8-(4-methoxypiperidin-1-yl)-N4-methylpyrimido[5,4-d]pyrimidine-2,4,6-triamine], the IC50 is below 100 nM in data set [1], 100 to 500 nM in data set [2] (setting [6]), 100 to 500 nM in data set [2] (setting [7]) and below 100 nM in data set [5].
Take `COCCN(CCOC)c1nc(N2CCC(OC)CC2)c2nc(N(CCO)CCO)nc(N3CCC(OC)CC3)c2n1` [Compound 27, 2,2′-((6-(bis(2-methoxyethyl)amino)-4,8-bis(4-methoxypiperidin-1-yl)pyrimido[5,4-d]pyrimidin-2-yl)azanediyl)diethanol]: the “Human alpha-1-acid glycoprotein (AAG) (1 mg/mL) Unbound” value in data set [4] amounted to 89.4% Unbound. The same compound had an IC50 in data set [5] of 500 to 1000 nM.
As to `COCCN(CCOC)c1nc(N2CCC(OC)CC2)c2nc(N(CCOC)Cc3cc(OC)c(OC)c(OC)c3)nc(N3CCC(OC)CC3)c2n1` [Compound 184, N2,N2,N6-tris(2-methoxyethyl)-4,8-bis(4-methoxypiperidin-1-yl)-N6-(3,4,5-trimethoxybenzyl)pyrimido[5,4-d]pyrimidine-2,6-diamine], the IC50 in data set [1], in data set [2] (setting [6]), in data set [2] (setting [7]) and in data set [5] was below 100 nM each time.
